Experimental data published in ChEMBL document CHEMBL1201862, “PubChem BioAssay data set” (2004).
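Values below derive from 48-hour exposures of cells grown in 96-well plates, with endpoints linearly interpolated between the two concentrations bracketing the appropriate inhibition level. GI50 marks 50% less growth.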 Calls of active or inactive are those of the source. No stated cut-off is given here; in the data, active = GI50 up to about 1.1 µM and inactive = higher.

Legend:
Assay in all cases: inhibition of tumour cell growth, NCI panel, 48 h
SN12C = system: SN12C
NCI-H522 = system: NCI-H522
HCT-15 = system: HCT-15
U-251 = system: U-251
OVCAR-5 = system: OVCAR-5
786-0 = system: 786-0
NCI/ADR-RES = system: NCI/ADR-RES
OVCAR-3 = system: OVCAR-3
IGROV-1 = system: IGROV-1
SK-OV-3 = system: SK-OV-3
RXF 393 = system: RXF 393
OVCAR-8 = system: OVCAR-8
SK-MEL-5 = system: SK-MEL-5
A549 = system: A549
NCI-H226 = system: NCI-H226
MOLT-4 = system: MOLT-4
UACC-62 = system: UACC-62
K562 = system: K562
SR = system: SR

| SMILES | GI50 (SN12C) | GI50 (NCI-H522) | GI50 (HCT-15) | GI50 (U-251) | GI50 (OVCAR-5) | GI50 (786-0) | GI50 (NCI/ADR-RES) | GI50 (OVCAR-3) | GI50 (IGROV-1) | GI50 (SK-OV-3) | GI50 (RXF 393) | GI50 (OVCAR-8) | GI50 (SK-MEL-5) | GI50 (A549) | GI50 (NCI-H226) | GI50 (MOLT-4) | GI50 (UACC-62) | GI50 (K562) | GI50 (SR) |
| --- | --- | --- | --- | --- | --- | --- | --- | --- | --- | --- | --- | --- | --- | --- | --- | --- | --- | --- | --- |
| N#Cc1c(-c2ccccc2)c(/C=N/c2ccc(F)cc2)c(=O)n2c1[nH]c1ccccc12 | 22.4 µM (inactive) | 16 µM (inactive) | 19.7 µM | 46.7 µM (inactive) | 26.7 µM (inactive) | 24.7 µM (inactive) | 21 µM (inactive) | 19.7 µM (inactive) | 25.4 µM (inactive) | 36.3 µM (inactive) | 22.5 µM (inactive) | 34.2 µM (inactive) | 25.6 µM (inactive) | 19.7 µM (inactive) | 27.6 µM (inactive) |  |  |  |  |
| CN1CC=C(OP(=O)(NCc2ccccc2)N(CCCl)CCCl)CC1 (stereo not given) | > 100 µM (inactive) |  | > 100 µM | > 100 µM (inactive) | > 100 µM (inactive) | > 100 µM (inactive) | > 100 µM (inactive) | > 100 µM (inactive) | > 100 µM (inactive) | > 100 µM (inactive) | 40.9 µM (inactive) | > 100 µM (inactive) |  |  | > 100 µM (inactive) | > 100 µM (inactive) | > 100 µM (inactive) | > 100 µM (inactive) | > 100 µM (inactive) |
| O=C(O)c1ccc(C=C2Sc3ccccc3S2)cc1 | 65.9 µM (inactive) | 26.1 µM (inactive) | 37.2 µM | 48.2 µM (inactive) | 66.1 µM (inactive) | 98.2 µM (inactive) | 59.3 µM (inactive) | 30.3 µM (inactive) | 82.8 µM (inactive) | 86.9 µM (inactive) | 54.5 µM (inactive) | > 100 µM (inactive) | 51.6 µM (inactive) | 43.2 µM (inactive) | > 100 µM (inactive) | 42.4 µM (inactive) | 26.2 µM (inactive) | 70.5 µM (inactive) |  |
| Cc1ccc(C(=O)/C=C(\O)C(=O)NC23CC4CC(CC(C4)C2)C3)cc1 | 7.59 µM (inactive) |  | 6.27 µM |  |  | > 10 µM (inactive) |  |  |  | > 10 µM (inactive) | > 10 µM (inactive) | > 10 µM (inactive) | > 10 µM (inactive) | > 10 µM (inactive) |  | 3.86 µM (inactive) | 9.02 µM (inactive) | 5.64 µM (inactive) | 3.62 µM (inactive) |
| Cc1c(NC(=O)c2cc([N+](=O)[O-])cc([N+](=O)[O-])c2)c(=O)n(-c2ccccc2)n1C | > 100 µM (inactive) |  | 83.9 µM | > 100 µM (inactive) |  | > 100 µM (inactive) | > 100 µM (inactive) | 29.9 µM (inactive) | 48.8 µM (inactive) | > 100 µM (inactive) | > 100 µM (inactive) | > 100 µM (inactive) | > 100 µM (inactive) | > 100 µM (inactive) | > 100 µM (inactive) | > 100 µM (inactive) | > 100 µM (inactive) | > 100 µM (inactive) | 69.8 µM (inactive) |
| CC(CCc1ccc2c(c1)c(N)c1ccc(N)cc1[n+]2[O-])CC(C)(C)C (stereo not given) | 1.79 µM (inactive) |  | 4.26 µM | 1.38 µM (inactive) | 1.48 µM (inactive) | 1.5 µM (inactive) |  | 1.73 µM (inactive) | 1.49 µM (inactive) |  | 2 µM (inactive) | 1.72 µM (inactive) | 1.65 µM (inactive) | 1.63 µM (inactive) | 1.85 µM (inactive) | 1.09 µM (active) | 1.45 µM (inactive) | 0.621 µM (active) | 1.62 µM (inactive) |
| CC1(C)C2CCC(CN)(C2)C1N (stereo not given) | > 100 µM (inactive) |  | > 100 µM | > 100 µM (inactive) | > 100 µM (inactive) | > 100 µM (inactive) | > 100 µM (inactive) | > 100 µM (inactive) | > 100 µM (inactive) | > 100 µM (inactive) | > 100 µM (inactive) | > 100 µM (inactive) | > 100 µM (inactive) | > 100 µM (inactive) | > 100 µM (inactive) | > 100 µM (inactive) | > 100 µM (inactive) | > 100 µM (inactive) |  |
| COC(=O)C1=C(C(=O)OC)C2(c3ccccc3)OC1(c1ccccc1)c1cc3ccccc3cc12 | 1.9 µM (inactive) | 1.23 µM (inactive) | 1.82 µM | 6.43 µM (inactive) | 1.91 µM (inactive) | 1.4 µM (inactive) |  | 1.37 µM (inactive) | 1.9 µM (inactive) | 11.2 µM (inactive) | 1.29 µM (inactive) | 1.56 µM (inactive) | 2.21 µM (inactive) | 2.43 µM (inactive) |  | 0.733 µM (active) | 1.85 µM (inactive) | 1.51 µM (inactive) |  |
| COc1cc2c(cc1OC)-c1[nH]c3ccc(C#N)cc3c1CC(=O)N2 | 5.04 µM (inactive) |  | 4.02 µM | 2.61 µM (inactive) | 3.69 µM (inactive) | 3.68 µM (inactive) | > 100 µM (inactive) | 1.42 µM (inactive) | 0.759 µM (active) | > 100 µM (inactive) |  | 4.2 µM (inactive) | 3.23 µM (inactive) | 5.26 µM (inactive) | 3.8 µM (inactive) | 2.65 µM (inactive) | > 84.9 µM (inactive) |  |  |
| N#CC(C#N)=C1CCCCc2ccc([N+](=O)[O-])cc21 | 52.6 µM (inactive) | 19.4 µM (inactive) | 63.7 µM | 76.2 µM (inactive) | > 100 µM (inactive) | 17.4 µM (inactive) | > 100 µM (inactive) | 15.7 µM (inactive) | > 100 µM (inactive) | > 100 µM (inactive) | 40.6 µM (inactive) | > 100 µM (inactive) | > 100 µM (inactive) | > 100 µM (inactive) | > 100 µM (inactive) | 41.8 µM (inactive) | > 100 µM (inactive) | 39.4 µM (inactive) |  |
| Cc1cc(C)nc(NS(=O)(=O)c2ccc(NC(=O)NC(F)(F)F)cc2)n1 | > 100 µM (inactive) |  | > 100 µM | > 100 µM (inactive) | > 100 µM (inactive) | > 100 µM (inactive) | > 100 µM (inactive) |  | > 100 µM (inactive) | > 100 µM (inactive) | > 100 µM (inactive) | > 100 µM (inactive) | > 100 µM (inactive) | > 100 µM (inactive) |  | > 100 µM (inactive) |  | > 100 µM (inactive) | > 100 µM (inactive) |
| Oc1ccc2c(c1)c1c(n2CCN2CCOCC2)-c2ccccc2CC1 | 41.8 µM (inactive) |  | 25.6 µM | 25.6 µM (inactive) | 24.4 µM (inactive) | 57.8 µM (inactive) | 23.1 µM (inactive) | 22 µM (inactive) | 15.1 µM (inactive) | 42.2 µM (inactive) | 29.6 µM (inactive) | 33.6 µM (inactive) |  |  | 30.7 µM (inactive) | 23.9 µM (inactive) | 20.7 µM (inactive) | 27.9 µM (inactive) | 24.8 µM (inactive) |
| Nc1ccccc1-n1c2c(c3ccccc3c1=O)C(=O)c1ccccc1-2 | 42 µM (inactive) | 6.58 µM (inactive) | 38 µM | 15.2 µM (inactive) | > 100 µM (inactive) | 7.62 µM (inactive) | 14.6 µM (inactive) | 21.8 µM (inactive) | 9.68 µM (inactive) | 6.98 µM (inactive) |  | 14.5 µM (inactive) | 10.4 µM (inactive) | 11.5 µM (inactive) | < 0.01 µM (active) | 4.25 µM (inactive) | 17.2 µM (inactive) | > 100 µM (inactive) |  |
| COC(=O)[C@H](Cc1ccccc1)NC(=O)N(CCN(CCC#N)C(=O)N[C@H](C(=O)OC)C(C)C)c1ccccc1 | > 100 µM (inactive) | 30.3 µM (inactive) | > 100 µM | > 100 µM (inactive) | > 100 µM (inactive) | > 100 µM (inactive) | > 100 µM (inactive) | > 100 µM (inactive) | 57.5 µM (inactive) | > 100 µM (inactive) | > 100 µM (inactive) | > 100 µM (inactive) | 52.6 µM (inactive) | > 100 µM (inactive) | > 100 µM (inactive) | 24.3 µM (inactive) | 48.5 µM (inactive) |  |  |
| C=CCN(c1cc(O)c2c(c(C)cn2S(=O)(=O)c2ccccc2)c1[N+](=O)[O-])S(C)(=O)=O | 78.9 µM (inactive) | 65.9 µM (inactive) | > 100 µM | > 100 µM (inactive) | > 100 µM (inactive) | > 100 µM (inactive) | > 100 µM (inactive) | 65.5 µM (inactive) | > 100 µM (inactive) | > 100 µM (inactive) | 56 µM (inactive) | > 100 µM (inactive) | 51.4 µM (inactive) | 56.5 µM (inactive) | > 100 µM (inactive) | 42.4 µM (inactive) | > 10 µM (inactive) | 38.5 µM (inactive) |  |
| N#CCCC(CC#N)N1CCN(CCO)CC1 (stereo not given) | > 100 µM (inactive) |  | > 100 µM | > 100 µM (inactive) | > 100 µM (inactive) | > 100 µM (inactive) | > 100 µM (inactive) |  | > 100 µM (inactive) | > 100 µM (inactive) | > 100 µM (inactive) | > 100 µM (inactive) | > 100 µM (inactive) | > 100 µM (inactive) | > 100 µM (inactive) | > 100 µM (inactive) | > 100 µM (inactive) | > 100 µM (inactive) | > 100 µM (inactive) |
| COC(=O)c1c(N)n[nH]c1N | > 100 µM (inactive) | > 100 µM (inactive) |  | > 100 µM (inactive) |  | > 100 µM (inactive) |  | > 100 µM (inactive) | > 100 µM (inactive) | > 100 µM (inactive) | > 100 µM (inactive) | > 100 µM (inactive) | > 100 µM (inactive) | > 100 µM (inactive) |  | > 100 µM (inactive) | 77.6 µM (inactive) | > 100 µM (inactive) | > 100 µM (inactive) |
